Measured values taken from patent US9540299B2, “MTOR-independent activator of TFEB for autophagy enhancement and uses thereof” (Hong Kong Baptist University, priority 2015, dated 2017).

Molecular target: T1, 3×Flag-TFEB (Homo sapiens, UniProt P19484)
T1 construct: expressed in transfected cells
T1 sequence (P19484 1-476): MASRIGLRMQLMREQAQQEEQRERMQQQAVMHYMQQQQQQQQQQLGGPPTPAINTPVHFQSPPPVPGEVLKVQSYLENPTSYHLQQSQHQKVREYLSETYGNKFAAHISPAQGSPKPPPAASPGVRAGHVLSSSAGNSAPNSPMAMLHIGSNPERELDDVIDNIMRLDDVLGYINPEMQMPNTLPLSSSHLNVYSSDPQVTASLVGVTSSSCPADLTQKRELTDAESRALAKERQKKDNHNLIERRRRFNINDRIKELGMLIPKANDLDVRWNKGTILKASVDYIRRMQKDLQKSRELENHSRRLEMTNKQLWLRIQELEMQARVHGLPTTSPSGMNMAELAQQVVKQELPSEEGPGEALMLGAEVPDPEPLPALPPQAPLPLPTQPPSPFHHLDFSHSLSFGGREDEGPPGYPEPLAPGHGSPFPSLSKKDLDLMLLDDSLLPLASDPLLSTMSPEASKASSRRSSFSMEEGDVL
Test: Nuclear translocation of Flag-TFEB in Hela cells stably expressing 3×Flag-TFEB (immunostaining, western blot)
Type: cell-based
Settings: analogs 1 μM, curcumin 10 μM, 12 h, Torin 1 1 μM, 2 h
Description: Cells were treated with curcumin (Cur, 10 μM), A2, B3 and C1 (1 μM) for 12 h. […] Data is quantified by ImageJ software and is presented as mean±SD of three replicates for each treatment conditions. At least 1000 cells are analyzed in each treatment group. *p<0.05 vs. the control (0.1% DMSO). FIG. 4C is a western blot showing the expression of endogenous TFEB. […] Data are presented as the mean±SD from three independent experiments. *p<0.05 vs. the control (0.1% DMSO). FIG. 4E is fluorescence images showing expression of 3×Flag-TFEB in Hela cells having treated with Cur (10 μM), A2, B3 and C1 (1 μM) for 12 h. Torin 1 (1 μM) treatment for 2 h is used as a positive control. Cells were fixed and stained with anti-Flag antibody. […] FIG. 4G is the western blot showing the expression of Flag-tagged TFEB in the cytosolic (Cyt.) and nuclear (Nuc.) fractions. ACTB and H3F3A (H3 histone, family 3A) are used as loading control of cytoplasmic and nuclear fraction, respectively. FIG. 4H is showing the relative intensity of TFEB in the cytosolic and nuclear fractions. Data are presented as the mean±SD from three independent experiments. *p<0.05 vs. the control (0.1% DMSO).
HeLa cells stably expressing 3×Flag-TFEB are treated with curcumin analogs E2, E3 and E4 (1 μM) for 12 hours. Torin 1 (1 μM) treatment for 2 hours is used as a positive control. Cells are fixed and stained with anti-Flag antibody (red) and DAPI (blue) (FIG. 18A). TFEB translocate into nucleus are quantified (FIG. 18B). Quantification data are presented as mean±SD of three replicates in a representative experiment. At least 500 cells are analyzed in each treatment group.
HeLa cells stably expressing 3×Flag-TFEB are treated with curcumin analogs E2, E3 and E4 (1 μM) for 12 hours. Torin 1 (1 μM) treatment for 2 hours is used as a positive control. The expression of TFEB in the cytosolic (Cyt.) and nuclear (Nuc.) fractions are determined by western blotting (FIG. 19A) and quantified (FIG. 19B). TUBB (β-tubulin) and H3F3A (H3 histone, family 3A) are used as loading control of cytoplasmic and nuclear fraction respectively. Quantification data are presented as the mean±SD from three independent experiments. *p<0.05 vs. the control (0.1% DMSO).
N2a, Hela and Hela cells stably expressing 3×-Flag-TFEB are cultured in DMEM supplemented with 10% FBS. SH-SY5Y cells are cultured in DMEM/F12 supplemented with 10% FBS. For drug treatment, the full medium is replaced by fresh Opti-MEM I and then the compounds (in 0.1% DMSO) are added to the cells and incubated for 12 h. Inducible PC12 cells overexpressing SNCA (WT and A53T) (a kind gift from Prof. David C. Rubinsztein at Cambridge University) are grown in DMEM supplemented with 10% horse serum, 5% FBS, 50 μg/ml G418, and 150 μg/ml hygromycin B at 37° C., 10% CO2. Cells are treated with 2 μg/ml doxycycline (Dox) for 24 h to induce SNCA expression. The full medium is changed to Opti-MEM I containing the testing compounds for another 48 h.
Cells are lysed on ice in 1× Lysis Buffer (9803, Life Technologies) with complete protease inhibitor mixture (04693124001, Roche Applied Science). Animal tissues are homogenized in nine volumes of ice-cold PBS supplemented with protease inhibitors. Cytosolic and nuclear fractions are isolated using protocols similar to those described previously. Anti-Flag or TFEB antibody is added to the whole cell lysates and Dynabeads® Protein G (10003D, Life Technologies) is used for immunoprecipitation. Proteins are separated by 10-15% SDS-PAGE, transferred, and blotted with the antibodies described. The blots are then incubated with secondary antibodies or the Clean-Blot IP Detection Reagent (21230, Thermo Scientific) at room temperature for 1 h. The protein signals are detected by ECL kit (32106, Pierce) and quantified using ImageJ software.
Cells are seeded on coverslips placed in 24-well plates. […]

Row | Compound | nuclear translocation of Flag-TFEB
1 | O=C(/C=C/c1ccccc1I)/C=C/c1ccccc1I [E4] | significantly promote
2 | O=C(/C=C/c1ccccc1Cl)/C=C/c1ccccc1Cl [E2] | significantly promote
3 | O=C(/C=C/c1ccccc1Br)/C=C/c1ccccc1Br [E3] | significantly promote
4 | O=C(/C=C/c1ccc(O)cc1)/C=C/c1ccc(O)cc1 [B3, 1,5-bis(4-hydroxyphenyl)penta-1,4-dien-3-one] | no effects
5 | O=C(/C=C/c1cccc(C(F)(F)F)c1)/C=C/c1cccc(C(F)(F)F)c1 [A2, 1,5-bis(3-(trifluoromethyl)phenyl)penta-1,4-dien-3-one] | no effects
6 | COc1cc(/C=C/C(=O)CC(=O)/C=C/c2ccc(O)c(OC)c2)ccc1O [curcumin, Curcumin, reference compound] | no effects
7 | COc1ccccc1/C=C/C(=O)/C=C/c1ccccc1OC [C1, 1,5-bis(2-methoxyphenyl)penta-1,4-dien-3-one] | significantly promotes
